Results published in patent US12692233B2, “Anthelmintic compounds comprising a pyridine structure” (Intervet Inc., priority 2020, dated 2026).

What was measured:
C. elegans Slo-1a = C. elegans Slo-1a (Caenorhabditis elegans, UniProt Q95V25); test: Agonistic activity at C. elegans Slo-1a, FLIPR membrane potential in CHO K1 cells; conditions: EC50 agonistic activity at C. elegans Slo-1a, CHO K1 cells stably transfected with slo-1a, membrane potential dye
[1] = biological target: T1, human Maxi K channel (BK channel) (Homo sapiens, UniProt Q12791); test: Agonistic activity at the human Maxi K channel (BK channel), FLIPR membrane potential in CHO K1 cells; assay type: cell-based; conditions: CHO K1 cells stably transfected with KCNMA1 and beta1 (KCNMB1) subunits, membrane potential dye
T1 construct: expressed in transfected cells; host or cells: CHO K1
T1 sequence (Q12791 1-1178 isoform Q12791-5): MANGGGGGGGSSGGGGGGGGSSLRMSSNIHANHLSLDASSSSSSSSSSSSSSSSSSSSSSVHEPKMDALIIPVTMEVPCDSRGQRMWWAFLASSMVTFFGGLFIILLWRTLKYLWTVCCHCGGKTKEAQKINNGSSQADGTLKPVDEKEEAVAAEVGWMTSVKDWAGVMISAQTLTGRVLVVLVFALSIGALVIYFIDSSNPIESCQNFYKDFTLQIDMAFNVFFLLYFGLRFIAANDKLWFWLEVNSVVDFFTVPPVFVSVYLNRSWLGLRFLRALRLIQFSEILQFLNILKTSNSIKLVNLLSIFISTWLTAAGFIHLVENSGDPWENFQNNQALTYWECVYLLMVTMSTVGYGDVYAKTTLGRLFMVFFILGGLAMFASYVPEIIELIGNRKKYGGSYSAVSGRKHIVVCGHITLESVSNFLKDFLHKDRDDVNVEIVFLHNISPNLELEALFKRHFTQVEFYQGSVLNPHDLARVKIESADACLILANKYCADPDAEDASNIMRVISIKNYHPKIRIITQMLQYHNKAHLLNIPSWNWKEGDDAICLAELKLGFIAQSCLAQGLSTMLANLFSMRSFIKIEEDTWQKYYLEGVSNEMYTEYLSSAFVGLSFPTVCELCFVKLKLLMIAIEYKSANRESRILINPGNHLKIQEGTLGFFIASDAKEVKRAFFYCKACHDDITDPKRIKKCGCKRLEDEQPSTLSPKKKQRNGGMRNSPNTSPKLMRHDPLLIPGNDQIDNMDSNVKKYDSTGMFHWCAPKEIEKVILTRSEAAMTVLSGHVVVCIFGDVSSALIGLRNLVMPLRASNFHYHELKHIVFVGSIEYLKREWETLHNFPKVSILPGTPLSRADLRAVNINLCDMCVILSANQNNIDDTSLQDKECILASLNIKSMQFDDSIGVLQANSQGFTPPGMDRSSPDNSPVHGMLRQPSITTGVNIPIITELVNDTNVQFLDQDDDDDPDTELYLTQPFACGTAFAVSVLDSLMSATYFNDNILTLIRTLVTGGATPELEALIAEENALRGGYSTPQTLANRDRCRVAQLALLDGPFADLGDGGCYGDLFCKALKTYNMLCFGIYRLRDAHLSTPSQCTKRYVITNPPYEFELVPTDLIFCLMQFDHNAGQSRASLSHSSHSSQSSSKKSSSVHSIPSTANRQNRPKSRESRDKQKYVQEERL
T1 sequence (Q16558 whole entry partner): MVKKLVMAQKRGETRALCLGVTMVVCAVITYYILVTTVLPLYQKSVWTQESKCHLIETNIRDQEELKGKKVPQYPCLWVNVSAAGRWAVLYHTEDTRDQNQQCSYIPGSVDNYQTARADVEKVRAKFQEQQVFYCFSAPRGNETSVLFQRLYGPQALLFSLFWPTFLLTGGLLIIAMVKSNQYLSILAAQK
Source text: A CHO K1 cell line was stably transfected with the KCNMA1 (KCa1.1, U11058) and beta1 (KCNMB1) subunits of the human Maxi K channel (Ponte et al, Molecular Pharmacology 2012, 81(4), 567-577).
The complete measurement takes 150 s.

Ascaridia galli = test: In vitro assay Ascaridia galli larval stage 3; assay type: cell-based; conditions: larval stage 3, 20 larvae per well, microscopic examination, read-out: MEC (minimum effective concentration) against Ascaridia galli L3
Source text: […] galli (intestinal roundworm of chicken), larval stage 3 (“L3”); and Oesophagostumum dentatum (nodular worm of swine), larval stages 3 and 4 (respectively “L3” and “L4”) where suspended in a nutrient medium and distributed to 96 well plates with 20 larvae per well. The wells were spiked DMSO solutions of the compounds with declining concentration.

Chain of C. elegans Slo-1a (Q95V25 whole entry): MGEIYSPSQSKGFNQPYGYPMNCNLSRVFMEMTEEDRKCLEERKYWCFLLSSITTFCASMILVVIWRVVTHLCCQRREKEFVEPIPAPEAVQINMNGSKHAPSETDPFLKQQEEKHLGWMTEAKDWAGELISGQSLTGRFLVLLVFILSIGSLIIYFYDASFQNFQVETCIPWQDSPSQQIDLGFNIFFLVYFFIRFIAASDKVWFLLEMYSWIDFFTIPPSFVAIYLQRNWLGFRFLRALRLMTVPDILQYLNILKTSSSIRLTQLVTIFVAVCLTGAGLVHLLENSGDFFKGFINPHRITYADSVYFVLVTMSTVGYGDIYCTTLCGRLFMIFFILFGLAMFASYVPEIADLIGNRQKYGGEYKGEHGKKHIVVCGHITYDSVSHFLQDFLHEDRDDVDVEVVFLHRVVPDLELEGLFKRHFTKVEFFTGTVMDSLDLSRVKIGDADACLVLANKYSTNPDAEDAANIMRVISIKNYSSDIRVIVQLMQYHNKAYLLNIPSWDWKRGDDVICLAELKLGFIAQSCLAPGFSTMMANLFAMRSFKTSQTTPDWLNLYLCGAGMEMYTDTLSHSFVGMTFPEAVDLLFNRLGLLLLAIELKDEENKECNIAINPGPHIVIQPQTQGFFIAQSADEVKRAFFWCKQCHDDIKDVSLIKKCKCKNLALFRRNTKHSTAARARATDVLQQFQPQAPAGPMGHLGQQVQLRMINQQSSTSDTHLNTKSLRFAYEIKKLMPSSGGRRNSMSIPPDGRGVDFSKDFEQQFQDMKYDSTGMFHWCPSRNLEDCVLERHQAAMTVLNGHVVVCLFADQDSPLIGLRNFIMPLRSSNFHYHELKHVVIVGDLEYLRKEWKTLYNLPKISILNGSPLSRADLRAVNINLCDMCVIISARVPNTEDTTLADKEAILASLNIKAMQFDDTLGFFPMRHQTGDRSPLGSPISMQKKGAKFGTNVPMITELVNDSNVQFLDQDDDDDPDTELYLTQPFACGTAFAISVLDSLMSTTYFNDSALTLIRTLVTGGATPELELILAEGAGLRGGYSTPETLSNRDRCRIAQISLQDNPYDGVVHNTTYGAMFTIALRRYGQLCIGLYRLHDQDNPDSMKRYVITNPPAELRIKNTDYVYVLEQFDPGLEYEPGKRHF

| Compound | EC50 (C. elegans Slo-1a) [µM] | EC50 [1] [µM] | minimal effective concentration (Ascaridia galli) [µM] |
| --- | --- | --- | --- |
| O=C(N[C@H]1CCc2ccccc21)c1cnc(Oc2cccc(Cl)c2Cl)cc1N1CCOCC1 [Compound 7] | < 1 | > 30 | – |
| O=C(N[C@H]1CCCc2ccccc21)c1cnc(Sc2cc(Cl)cc(Cl)c2)cc1N1CCOCC1 [Compound 9] | < 1 | > 30 | – |
| O=C(Nc1cccc2ccccc12)c1cnc(Sc2cc(Cl)cc(Cl)c2)cc1N1CCOCC1 [Compound 10] | – | > 30 | ≤ 50 |
| CN(C)c1cc(Sc2cc(Cl)cc(Cl)c2)ncc1C(=O)N[C@H]1CCOc2ccccc21 [Compound 13] | – | > 30 | – |
| O=C(N[C@H]1CCOc2ccccc21)c1cnc(Sc2cccc(Cl)c2Cl)cc1N1CCOCC1 [Compound 22] | < 1 | > 30 | – |
| O=C(N[C@H]1CCc2ccccc21)c1cnc(Oc2cc(Cl)cc(Cl)c2)cc1N1CCOCC1 [Compound 25, (S)-6-(3,5-dichlorophenoxy)-N-(2,3-dihydro-1H-inden-1-yl)-4-morpholinonicotinamide] | – | > 30 | – |
| O=C(Nc1cccc2ccccc12)c1cnc(Oc2cc(Cl)cc(Cl)c2)cc1N1CCOCC1 [Compound 26] | – | > 30 | ≤ 50 |
| CN(C)c1cc(Sc2cccc(Cl)c2Cl)ncc1C(=O)N[C@H]1CCc2ccccc21 [Compound 42] | < 1 | > 30 | – |
| CN(C)c1cc(Sc2cccc(Cl)c2Cl)ncc1C(=O)Nc1cccc2ccccc12 [Compound 43] | – | > 30 | – |
| CN(C)c1cc(Sc2cccc(Cl)c2Cl)ncc1C(=O)Nc1csc2ccccc12 [Compound 44] | – | > 30 | – |
| O=C(Nc1cccc2ccccc12)c1cnc(Sc2cccc(Cl)c2Cl)cc1N1CCOCC1 [Compound 49] | – | > 30 | ≤ 50 |
| CSc1cc(Oc2cc(Cl)cc(Cl)c2)ncc1C(=O)N[C@H]1CCCc2ccccc21 [Compound 59] | < 10 | > 30 | – |
| CCSc1cc(Sc2cccc(Cl)c2Cl)ncc1C(=O)N[C@H]1CCc2ccccc21 [Compound 64] | – | > 30 | – |
| CSc1cc(Sc2cc(Cl)cc(Cl)c2)ncc1C(=O)N[C@H]1CCc2ccccc21 [Compound 65] | < 10 | > 30 | – |
| CCOc1cc(Sc2cccc(Cl)c2Cl)ncc1C(=O)N[C@H]1CCOc2ccccc21 [Compound 71] | < 10 | > 30 | – |
| CCSc1cc(Sc2cc(Cl)cc(Cl)c2)ncc1C(=O)N[C@H]1CCCc2ccccc21 [Compound 75] | – | > 30 | – |
| CCSc1cc(Oc2cc(Cl)cc(Cl)c2)ncc1C(=O)N[C@H]1CCCc2ccccc21 [Compound 79] | – | > 30 | – |
| CCSc1cc(Oc2cc(Cl)cc(Cl)c2)ncc1C(=O)N[C@H]1CCc2ccccc21 [Compound 81] | – | > 30 | – |
| CCOc1cc(Sc2cc(Cl)cc(Cl)c2)ncc1C(=O)N[C@H]1CCOc2ccccc21 [Compound 88] | < 10 | > 30 | – |
| CCOc1cc(Oc2cc(Cl)cc(Cl)c2)ncc1C(=O)N[C@H]1CCOc2ccccc21 [Compound 89] | – | > 30 | – |
| CCOc1cc(Oc2cccc(Cl)c2Cl)ncc1C(=O)N[C@H]1CCCc2ccccc21 [Compound 91] | – | > 30 | – |
| CCOc1cc(Oc2cccc(Cl)c2Cl)ncc1C(=O)N[C@H]1CCc2ccccc21 [Compound 93] | – | > 30 | – |

Further lines, with some results ahead:

| EC50 (C. elegans Slo-1a) [µM] | EC50 [1] [µM] | Compound | minimal effective concentration (Ascaridia galli) [µM] |
| --- | --- | --- | --- |
| < 1 | > 30 | O=C(N[C@H]1CCOc2ccccc21)c1cnc(Sc2cc(Cl)cc(Cl)c2)cc1N1CCOCC1 [Compound 3, (S)—N-(chroman-4-yl)-6-((3,5-dichlorophenyl)thio)-4-morpholinonicotinamide] | – |
| < 1 | > 30 | O=C(N[C@H]1CCOc2ccccc21)c1cnc(Oc2cc(Cl)cc(Cl)c2)cc1N1CCOCC1 [Compound 5] | – |
| < 1 | > 30 | O=C(N[C@H]1CCCc2ccccc21)c1cnc(Oc2cccc(Cl)c2Cl)cc1N1CCOCC1 [Compound 6] | – |
| < 1 | > 30 | O=C(N[C@H]1CCCc2ccccc21)c1cnc(Oc2cc(Cl)cc(Cl)c2)cc1N1CCOCC1 [Compound 8] | – |
| < 1 | > 30 | O=C(N[C@H]1CCc2ccccc21)c1cnc(Sc2cc(Cl)cc(Cl)c2)cc1N1CCOCC1 [Compound 11] | – |
| < 1 | > 30 | O=C(N[C@H]1CCOc2ccccc21)c1cnc(Oc2cccc(Cl)c2Cl)cc1N1CCOCC1 [Compound 12] | – |
| < 1 | > 30 | CN(C)c1cc(Sc2cc(Cl)cc(Cl)c2)ncc1C(=O)N[C@H]1CCc2ccccc21 [Compound 15] | – |
| < 1 | > 30 | CN(C)c1cc(Sc2cccc(Cl)c2Cl)ncc1C(=O)N[C@H]1CCOc2ccccc21 [Compound 20] | – |
| – | > 30 | O=C(Nc1csc2ccccc12)c1cnc(Sc2cc(Cl)cc(Cl)c2)cc1N1CCOCC1 [Compound 27] | ≤ 50 |
| < 1 | > 30 | CN(C)c1cc(Oc2cc(Cl)cc(Cl)c2)ncc1C(=O)N[C@H]1CCOc2ccccc21 [Compound 30] | – |
| < 1 | > 30 | CN(C)c1cc(Oc2cc(Cl)cc(Cl)c2)ncc1C(=O)N[C@H]1CCc2ccccc21 [Compound 31] | – |
| – | > 30 | CN(C)c1cc(Sc2cc(Cl)cc(Cl)c2)ncc1C(=O)Nc1csc2ccccc12 [Compound 33] | ≤ 50 |
| – | > 30 | CN(C)c1cc(Oc2cc(Cl)cc(Cl)c2)ncc1C(=O)Nc1csc2ccccc12 [Compound 38] | – |
| – | > 30 | O=C(Nc1csc2ccccc12)c1cnc(Oc2cc(Cl)cc(Cl)c2)cc1N1CCOCC1 [Compound 47] | ≤ 50 |
| – | > 30 | O=C(N[C@@H]1CCOc2ccccc21)c1cnc(Oc2cccc(Cl)c2Cl)cc1N1CCOCC1 [Compound 51] | – |
| – | > 30 | CSc1cc(Oc2cc(Cl)cc(Cl)c2)ncc1C(=O)N[C@H]1CCc2ccccc21 [Compound 61] | ≤ 50 |
| – | > 30 | CCSc1cc(Sc2cccc(Cl)c2Cl)ncc1C(=O)N[C@H]1CCOc2ccccc21 [Compound 63] | – |
| < 10 | > 30 | CSc1cc(Sc2cc(Cl)cc(Cl)c2)ncc1C(=O)N[C@H]1CCCc2ccccc21 [Compound 69] | – |
| – | > 30 | CCOc1cc(Sc2cccc(Cl)c2Cl)ncc1C(=O)N[C@H]1CCCc2ccccc21 [Compound 70] | – |
| – | > 30 | CCSc1cc(Oc2cccc(Cl)c2Cl)ncc1C(=O)N[C@H]1CCCc2ccccc21 [Compound 76] | – |
| – | > 30 | CCSc1cc(Oc2cccc(Cl)c2Cl)ncc1C(=O)N[C@H]1CCOc2ccccc21 [Compound 77] | – |
| – | > 30 | CCSc1cc(Oc2cccc(Cl)c2Cl)ncc1C(=O)N[C@H]1CCc2ccccc21 [Compound 78] | – |
| – | > 30 | CCSc1cc(Oc2cc(Cl)cc(Cl)c2)ncc1C(=O)N[C@H]1CCOc2ccccc21 [Compound 80] | ≤ 50 |
| – | > 30 | COc1cc(Oc2cc(Cl)cc(Cl)c2)ncc1C(=O)N[C@H]1CCc2ccccc21 [Compound 87] | – |
| – | > 30 | CCOc1cc(Oc2cc(Cl)cc(Cl)c2)ncc1C(=O)N[C@H]1CCCc2ccccc21 [Compound 98] | – |
| – | > 30 | CN(C)c1cc([S+]([O-])c2cc(Cl)cc(Cl)c2)ncc1C(=O)N[C@H]1CCc2ccccc21 (stereo partly drawn) [Compound 104, 6-((3,5-dichlorophenyl)sulfinyl)-N—((S)-2,3-dihydro-1H-inden-1-yl)-4-(dimethylamino)nicotinamide] | – |
| – | > 30 | CN(C)c1cc(S(=O)(=O)c2cc(Cl)cc(Cl)c2)ncc1C(=O)N[C@H]1CCc2ccccc21 [Compound 105] | – |
